Data reported in patent publication US20100094053A1, “USE OF PERSONAL CARE COMPOSITION” (CONOPCO, INC., D/B/A UNILEVER, priority 2008, published 2010).

What was measured:
[1] = target: T1, human recombinant CB1 receptor (Homo sapiens, UniProt P21554); assay: CB1 receptor inhibition binding assay ([3H]-CP-55,940 displacement)
T1 construct: expressed in transfected cells; host or cells: HEK-293
Protocol: (§1) Ki values were calculated by applying the Cheng-Prusoff equation to the IC50 values (obtained by GraphPad) for the displacement of the bound radioligand by increasing concentrations of the test compound.

[2] = target: T2, human recombinant CB2 receptor (Homo sapiens, UniProt P34972); assay: CB2 receptor inhibition binding assay ([3H]-CP-55,940 displacement); settings: 0.084 nM [3H]-CP-55,940, 90 minutes at 30° C
T2 construct: expressed in transfected cells; host or cells: HEK-293
Protocol: as §1

[3] = system: histamine induced scalp itch; assay: Clinical assessment of histamine induced scalp itch (histamine iontophoresis, half head study); assay type: in vivo, human; settings: 1.5% v/v CMEA in ethanol, 30 μl patch on scalp for 24 h, then histamine iontophoresis
Protocol: Cocomonoethanolamide (CMEA) efficacy against itch was assessed using histamine iontophoresis. CMEA (1.5% v/v) was made up in 100% ethanol. The same concentration of ethanol was used as the vehicular control. A total of 31 subjects completed the randomised, double blind, half head clinical study. Volunteers were initially familiarised with the iontophoresis equipment and test protocol prior to study commencement. Following this phase, product application was commenced. Two sites were selected on each side of the head approximately halfway between the top of the ear and the apex of the head. An area of 2 cm^2 was carefully trimmed close to the scalp. Both the CMEA test solution and the ethanol control (30 μl each) were applied to a filter paper and placed in a 12 mm Finn chamber, which was attached the scalp with adhesive tape. Volunteers kept the patch in place for a period of 24 h. The chambers were then removed from the scalp and each application site received a histamine challenge via iontophoresis. Subjects scored perceived itch throughout the procedure by sliding an indicator up or down a Visual Analogue Score (VAS; calibrated in gradient fashion from 0 (none) to 100% (extremely intense)) to indicate itch intensity in real time. Data are expressed as the mean area under the curve+/−S.E. (standard error of the mean).

T1 sequence (P21554 whole entry): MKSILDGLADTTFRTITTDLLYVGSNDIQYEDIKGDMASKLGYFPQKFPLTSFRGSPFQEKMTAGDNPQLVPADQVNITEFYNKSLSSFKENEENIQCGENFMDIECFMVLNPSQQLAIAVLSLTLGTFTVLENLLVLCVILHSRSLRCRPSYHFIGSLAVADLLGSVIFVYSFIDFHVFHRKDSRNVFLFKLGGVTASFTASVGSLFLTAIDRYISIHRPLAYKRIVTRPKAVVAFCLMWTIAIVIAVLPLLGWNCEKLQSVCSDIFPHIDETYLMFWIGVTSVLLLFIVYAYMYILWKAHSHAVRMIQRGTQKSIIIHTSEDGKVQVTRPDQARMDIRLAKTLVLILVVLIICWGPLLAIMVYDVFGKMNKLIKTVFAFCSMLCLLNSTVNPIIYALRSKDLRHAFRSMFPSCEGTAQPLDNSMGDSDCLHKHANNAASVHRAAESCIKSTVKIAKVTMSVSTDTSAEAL
T2 sequence (P34972 whole entry): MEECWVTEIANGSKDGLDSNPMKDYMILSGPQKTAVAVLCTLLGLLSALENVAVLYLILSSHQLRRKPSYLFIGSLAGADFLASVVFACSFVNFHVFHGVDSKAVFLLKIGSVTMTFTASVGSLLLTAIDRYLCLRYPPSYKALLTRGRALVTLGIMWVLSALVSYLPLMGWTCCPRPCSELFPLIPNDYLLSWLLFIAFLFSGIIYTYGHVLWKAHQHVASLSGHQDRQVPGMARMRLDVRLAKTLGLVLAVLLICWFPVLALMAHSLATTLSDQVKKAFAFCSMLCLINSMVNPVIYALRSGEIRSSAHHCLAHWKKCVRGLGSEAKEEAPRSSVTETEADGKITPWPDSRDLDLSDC

Cocomonoethanolamide [CMEA]
IC50 for displacement of [3H]-CP-55,940 at CB1 receptor ([1]; HEK-293 cells transfected with human recombinant CB1 receptor, 0.14 nM [3H]-CP-55,940, 90 minutes at 30° C): 5.08 µg/mL
Ki at CB1 receptor ([1]; calculated by Cheng-Prusoff equation from IC50, 0.14 nM [3H]-CP-55,940, 90 minutes at 30° C): 2.85 µg/mL
binding affinity, CB1R compared with CB2R ([1]; comparison of CB1 and CB2 binding data): higher for the CB1R than for CB2R
IC50 for displacement of [3H]-CP-55,940 at CB2 receptor ([2]; HEK-293 cells transfected with human recombinant CB2 receptor): 8.19 µg/mL
Ki at CB2 receptor ([2]; calculated by Cheng-Prusoff equation from IC50): 6.44 µg/mL
Visual Analogue Score (area under the curve; mean +/− S.E.M.) ([3]; 31 subjects): 74942 (9625)
reduction of perceived scalp itch ([3]; versus ethanol control, P<0.02): 16.6%
